Where a SMILES comes first, the peptide text is derived from it. Bridges are numbered along the chain shown (N, C = ends). [ ]: non-standard residue; d: D form. The star is where a group is joined. hPhe(3,5-F2-4-CF3) = N[C@@H](CCc1cc(F)c(C(F)(F)F)c(F)c1)C(=O)O; hPhe(3-Cl-4-CF3) = N[C@@H](CCc1ccc(C(F)(F)F)c(Cl)c1)C(=O)O; NPrPhe(4-CF3) = CCCN[C@@H](Cc1ccc(C(F)(F)F)cc1)C(=O)O; NMeGly(cPent) = CN[C@H](C(=O)O)C1CCCC1; Hyp = O=C(O)[C@@H]1C[C@@H](O)CN1; NMeD = CN[C@@H](CC(=O)O)C(=O)O; NMeL = CN[C@@H](CC(C)C)C(=O)O; αMeS = C[C@](N)(CO)C(=O)O; Morpholide = C1CN(*)CCO1; Ac4c = NC1(C(=O)O)CCC1; Sar = CNCC(=O)O
What was measured:
[1] = molecular target: GDP-bound NRAS wild-type protein (Homo sapiens, UniProt P01111); test: Binding to NRAS by surface plasmon resonance (SPR), Single Cycle Kinetics; settings: for NRAS/KRAS (ratio of KD value with respect to NRAS to KD value with respect to KRAS): GDP-bound NRAS wild-type vs GDP-bound KRAS wild-type
Chain of GDP-bound NRAS wild-type protein (P01111 whole entry): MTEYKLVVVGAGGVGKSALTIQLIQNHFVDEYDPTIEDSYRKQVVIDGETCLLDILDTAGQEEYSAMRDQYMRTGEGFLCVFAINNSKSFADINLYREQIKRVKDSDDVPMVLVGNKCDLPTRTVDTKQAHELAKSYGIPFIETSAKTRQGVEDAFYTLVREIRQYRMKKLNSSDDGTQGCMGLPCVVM

[2] = molecular target: GDP-bound HRAS wild-type protein (Homo sapiens, UniProt P01112); test: Binding to HRAS by surface plasmon resonance (SPR), Single Cycle Kinetics; settings: for HRAS/KRAS (ratio of KD value with respect to HRAS to KD value with respect to KRAS): GDP-bound HRAS wild-type vs GDP-bound KRAS wild-type
Chain of GDP-bound HRAS wild-type protein (P01112 whole entry): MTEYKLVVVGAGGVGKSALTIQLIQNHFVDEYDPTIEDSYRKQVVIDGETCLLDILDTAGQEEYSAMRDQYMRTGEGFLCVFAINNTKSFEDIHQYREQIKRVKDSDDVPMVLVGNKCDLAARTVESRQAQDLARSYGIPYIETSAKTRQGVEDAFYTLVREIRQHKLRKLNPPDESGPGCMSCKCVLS

[3] = KD ratio NRAS/KRAS, class symbols
[4] = KD ratio HRAS/KRAS, class symbols

## CC[C@H](C)[C@@H]1NC(=O)[C@H](CC)N(C)C(=O)C[C@@H](C(=O)N(C)C)N(C)C(=O)[C@H](C2CCCC2)N(C)C(=O)C2(CCC2)NC(=O)[C@@H]2C[C@@H](F)CN2C(=O)[C@H](CCc2cc(F)c(C(F)(F)F)c(F)c2)NC(=O)CN(C)C(=O)[C@H](Cc2ccc(C(F)(F)F)cc2)N2CC/C=C\C[C@@H](C2=O)N(C)C(=O)CN(C)C1=O [PP1131]
[1]; SPR
  NRAS/KRAS (ratio of KD value with respect to NRAS to KD value with respect to KRAS): A (a compound having 10 or more and less than 20 is denoted as A)
[2]; SPR
  HRAS/KRAS (ratio of KD value with respect to HRAS to KD value with respect to KRAS): B (a compound having 3 or more and less than 10 is denoted as B)

## CCO[C@@H]1C[C@H]2C(=O)NC3(CCC3)C(=O)N(C)[C@@H](C3CCCC3)C(=O)N(CCc3ccccc3)[C@H](C(=O)N(C)C)CC(=O)N(C)[C@@H](CC)C(=O)N[C@@H]([C@@H](C)CC)C(=O)N(C)CC(=O)N(C)[C@H]3CCCCN(C3=O)[C@@H](Cc3ccc(C(F)(F)F)cc3)C(=O)N(C)CC(=O)N[C@@H](CCc3cc(F)c(C(F)(F)F)c(F)c3)C(=O)N2C1 [PP0647]
[1]; KD ratio NRAS/KRAS, SPR
  NRAS/KRAS (ratio of KD value with respect to GDP-bound NRAS wild-type protein to KD value with respect to KRAS): C (A compound having a KD ratio of 0.1 or more and less than 3 is denoted as C)
[2]; KD ratio HRAS/KRAS, SPR
  HRAS/KRAS (ratio of KD value with respect to GDP-bound HRAS wild-type protein to KD value with respect to KRAS): B (a compound having 3 or more and less than 10 is denoted as B)

## CC[C@H](C)[C@@H]1NC(=O)[C@H](COC)N(C)C(=O)C[C@@H](C(=O)N(C)C)N(C)C(=O)[C@H](C2CCCC2)N(C)C(=O)C2(CC(C)(C)C2)NC(=O)[C@@H]2C[C@@H](OC3CCC3)CN2C(=O)[C@H](CCc2ccc(Cl)c(Cl)c2)NC(=O)CN(C)C(=O)[C@H](CC2CCC(F)(F)CC2)N2CC/C=C\C[C@@H](C2=O)N(C)C(=O)CN(C2CC2)C1=O [PP2624]
[1]; [3]
  NRAS/KRAS (ratio of KD value with respect to GDP-bound NRAS wild-type protein to KD value with respect to KRAS): A (a compound having 10 or more and less than 20 is denoted as A)
[2]; [4]
  HRAS/KRAS (ratio of KD value with respect to GDP-bound HRAS wild-type protein to KD value with respect to KRAS): A (a compound having 10 or more and less than 20 is denoted as A)

## CCO[C@@H]1C[C@H]2C(=O)NC3(CCC3)C(=O)N(C)[C@@H](C3CCCC3)C(=O)N(C)[C@H](C(=O)N3CCOCC3)CC(=O)N(CC)[C@@H](CC(C)C)C(=O)N[C@@H]([C@@H](C)CC)C(=O)N(C)CC(=O)N(C)[C@H]3CC(C)=CCN(C3=O)[C@@H](Cc3ccc(C(F)(F)F)cc3)C(=O)N(C)CC(=O)N[C@@H](CCc3cc(F)c(C(F)(F)F)c(F)c3)C(=O)N2C1 [PP1044]
[1]; SPR
  NRAS/KRAS (ratio of KD value with respect to NRAS to KD value with respect to KRAS): C (A compound having a KD ratio of 0.1 or more and less than 3 is denoted as C)
[2]; SPR
  HRAS/KRAS (ratio of KD value with respect to HRAS to KD value with respect to KRAS): C (A compound having a KD ratio of 0.1 or more and less than 3 is denoted as C)

## CCC(CC)[C@H]1C(=O)N(C)[C@H](C(=O)N(C)C)CC(=O)N(C)[C@@H](COC)C(=O)N[C@@H]([C@@H](C)CC)C(=O)N(C)CC(=O)N(C)[C@H]2C/C=C\CCN(C2=O)[C@@H](Cc2ccc(C)cc2)C(=O)N(C)CC(=O)N[C@@H](CCc2cc(F)c(C(F)(F)F)c(F)c2)C(=O)N2CCCCC[C@H]2C(=O)NC2(CC(C)(C)C2)C(=O)N1C [PP2960]
[1]; [3]
  NRAS/KRAS (ratio of KD value with respect to GDP-bound NRAS wild-type protein to KD value with respect to KRAS): A (a compound having 10 or more and less than 20 is denoted as A)
[2]; [4]
  HRAS/KRAS (ratio of KD value with respect to GDP-bound HRAS wild-type protein to KD value with respect to KRAS): A (a compound having 10 or more and less than 20 is denoted as A)

## CCCN1C(=O)CN(C)C(=O)CN(C)C(=O)[C@H]([C@@H](C)CC)NC(=O)[C@H](CC(C)C)N(C)C(=O)C[C@@H](C(=O)N2CCOCC2)N(C)C(=O)[C@H](C2CCCC2)N(C)C(=O)C2(CCC2)NC(=O)[C@@H]2C[C@@H](OCC)CN2C(=O)[C@H](CCc2ccc(C(F)(F)F)c(Cl)c2)NC(=O)CN(C)C(=O)[C@@H]1Cc1ccc(C(F)(F)F)cc1 [PP0392] ([NMeL]I[Sar][Sar][NPrPhe(4-CF3)][Sar][hPhe(3-Cl-4-CF3)][Hyp](Et)[Ac4c][NMeGly(cPent)][NMeD]-Morpholide; lactam N-11)
[1]; KD ratio NRAS/KRAS, SPR
  NRAS/KRAS (ratio of KD for GDP-bound NRAS wild-type to KD for KRAS): B (a compound having 3 or more and less than 10 is denoted as B)
[2]; KD ratio HRAS/KRAS, SPR
  HRAS/KRAS (ratio of KD for GDP-bound HRAS wild-type to KD for KRAS): C (A compound having a KD ratio of 0.1 or more and less than 3 is denoted as C)

## CC[C@H](C)[C@@H]1NC(=O)[C@H](CC)N(C)C(=O)C[C@@H](C(=O)N(C)C)N(C)C(=O)[C@H](C2CCCC2)N(C)C(=O)C2(CCC2)NC(=O)[C@@H]2CC(F)(F)CN2C(=O)[C@H](CCc2cc(F)c(C(F)(F)F)c(F)c2)NC(=O)CN(C)C(=O)[C@H](Cc2ccc(C(F)(F)F)cc2)N2CC/C=C\C[C@@H](C2=O)N(C)C(=O)CN(C)C1=O [PP1129]
[1]; SPR
  NRAS/KRAS (ratio of KD value with respect to NRAS to KD value with respect to KRAS): A (a compound having 10 or more and less than 20 is denoted as A)
[2]; SPR
  HRAS/KRAS (ratio of KD value with respect to HRAS to KD value with respect to KRAS): B (a compound having 3 or more and less than 10 is denoted as B)

## CCCN1C(=O)CN(C)C(=O)CN(C)C(=O)[C@H]([C@@H](C)CC)NC(=O)[C@H](CC(C)C)N(C)C(=O)C[C@@H](C(=O)N(C)C)N(C)C(=O)[C@H](C2CCCC2)N(C)C(=O)[C@](C)(COC)NC(=O)[C@@H]2CCCN2C(=O)[C@H](CCc2cc(F)c(C(F)(F)F)c(F)c2)NC(=O)CN(C)C(=O)[C@@H]1Cc1ccc(C(F)(F)F)cc1 [PP0741] ([NMeL]I[Sar][Sar][NPrPhe(4-CF3)][Sar][hPhe(3,5-F2-4-CF3)]P[αMeS](Me)[NMeGly(cPent)][NMeD]-NMe2; lactam N-11)
[1]; KD ratio NRAS/KRAS, SPR
  NRAS/KRAS (ratio of KD value with respect to GDP-bound NRAS wild-type protein to KD value with respect to KRAS): B (a compound having 3 or more and less than 10 is denoted as B)
[2]; KD ratio HRAS/KRAS, SPR
  HRAS/KRAS (ratio of KD value with respect to GDP-bound HRAS wild-type protein to KD value with respect to KRAS): B (a compound having 3 or more and less than 10 is denoted as B)

Source: patent US20250230193A1, “CYCLIC COMPOUND HAVING SELECTIVE KRAS INHIBITORY EFFECT ON HRAS AND NRAS” (CHUGAI SEIYAKU KABUSHIKI KAISHA, priority 2022, published 2025)
